Series [1] has as its system Medial Meniscus Transection (MMT) Model in Rats. The experiment in a line: Medial meniscus transection (MMT) model in rats: weight bearing and histopathology. It is filed as in vivo, rat. From the text: In the rat MMT model, the unilateral knee (right knee) was cleaned and prepped for surgery. An incision was made over the medial aspect of the femoro-tibial joint. The medial collateral ligament was exposed via blunt dissection and transected to reflect the meniscus toward the femur. A full thickness cut was made through the meniscus at its narrowest point. The joint space was returned to normal, and the skin was closed and the animal allowed to recover. For the present study, at second day post MMT induction animals, G1 and G2 animals were treatment with vehicle and test compound 16 respectively. Animals were dosed 4 times every day, and were dosed by gavage for 4 weeks.

Series [2] is described as follows: Pharmacokinetic studies in Sprague-Dawley (SD) rats: plasma GlcNBu after oral gavage of test compound. It is filed as in vivo. Also noted: key to AUC0-t / AUC0-∞ / t1/2z / Tmax / Vz/F / CLz/F / Cmax: (—): not detected. The conditions noted are these: 0.93 mmol/kg; for AUC0-t / AUC0-∞ / CLz/F / Cmax / Tmax / Vz/F / t1/2z: Table 5, plasma GlcNBu after oral gavage of indicated compound. Here is the method:
A test compound is dissolved in water at a concentration determined by the desired dose and dosing volume for the specific animal to which the compound is to be administered. A calculated volume of dosing solution is administered to the animal (PO, SQ, IP, or IV). A blood sample is collected following administration of the test compound at specific time points (such as 0 minutes (min), 5 min, 10 min, 15 min, 30 min, 1 hour (h), 1.5 h, 2 h, 3 h, 4, 6 h, etc.). The blood sample is converted to a plasma sample using standard techniques. The plasma samples are analyzed to determine the concentration of the test compound and, in some cases, GlcNBu.
According to the above general procedure, SD rats were grouped randomly into groups of six (n=6). The test compound, GlcNBu or a compound provided herein, was administered to the animals by oral gavage at a dose of 0.93 mmol/kg. For illustration purposes, GlcNBu was given at an oral dose of 232 mg/kg (0.93 mmol/kg), and compound 16 was administered at an equal molar dose (0.93 mmol/kg, i.e., 362 mg/kg). At pre-set time points, blood was taken through orbital venous plexus extraction, and the samples were analyzed using LC/MS-MS to determine the GlcNBu concentration in the plasma.
In the figure, Curves labeled with -●- and -▴-represent plasma GlcNBu concentration following oral administration of GlcNBu (232 mg/kg, or 0.93 mmol/kg) and compound 16 ([…], or 0.93 mmol/kg), respectively. […] FIG. 2A and FIG. 2B show examples of other compounds of the invention, presented in plasma GlcNBu concentration versus time curves; a summary of pharmacokinetic parameters for these compounds is given in Table 4 and Table 5.

Series [3] deals with Monosodium Iodoacetate-Induced Osteoarthritis (MIA) Model in Rat Knee. In words: Monosodium iodoacetate-induced osteoarthritis (MIA) model in rat knee: weight bearing and histology. It is filed as in vivo. Here is the method:
Osteoarthritis was induced by intra-articular (i.a.) injection of MIA solution in the rat knee joint as follows: Briefly, rats were anesthetized with isoflurane and given a single i.a. administration of 2 mg of MIA dissolved in saline through the intrapatellar ligament of the right knee. MIA was administered in a volume of 50 μL. Basal readings were established using a group of control rats injected with 10% ethanol in water. Rats were randomized by initial body weight to groups of 6 or 7. After MIA injection, the MIA groups began treatment with either vehicle, or a test compound at a preset dose regime for a period of 28 days. Clinical observations were recorded, including body weight, joint swelling, and weight bearing, on pre-induction day (day 0), day 3, 5, 7, 14, 21 and/or 28. At the end of the study, the animals were euthanized by CO2 and sacrificed.
Joint samples including the tibia and femur were sectioned in the coronal plane and stained using both H&E and Safranin-O. Knee joints were examined and scored for cartilage degeneration, the presence of osteophytes, the amount and extent of calcified cartilage and subchondral bone damage, and the amount of synovial membrane inflammation using the Osteoarthritis Research Society International (OARSI) scoring system put forth in 2010 (Kraus, V. B. et al., Osteoarthritis Cartilage, 2010, Suppl 3:535-52).
Studies of compound 16 in the MIA model were conducted as described above.

A further series has as its system OVX rat. The conditions noted are these: feeding in the OVX rat; cited from earlier work.
The test system of series [4] is destructive arthritis rat model. To be noted: cited from earlier work.
The conditions of series [5]: humans, polyvalent or monovalent form, compared with glucosamine; cited from earlier work.

As for `CCCC(=O)N[C@H]1C(O)O[C@H](COC(=O)CCC)[C@@H](OC(=O)CCC)[C@@H]1O` (stereo partly drawn) [Compound 16, 2-N-butyryl-4,6-O-tributyryl-D-glucosamine], the “degeneration changes of chondrocyte clustering” value in series [1] (G2 as compared with G1) was “significantly lower”. Further, the “weight bearing on the right paw” value in series [1] (G2 as compared with G1 on Day 3 and Days 14-28) is reported as “significantly increased”. Further, the histology parameters result in series [1] (G2 vs G1, all parameters) is recorded as “values in all parameters lower”. The plasma drug exposure entry in series [2] (versus GlcNBu at mole-equivalent oral dose) is reported as “improved plasma drug exposure significantly”. Also, in series [3] (MIA-induced OA rat model), the articular cartilage degeneration entry is “slowed the articular cartilage degeneration”. Besides, in series [3] (day 5, all compound-treated groups (234 and 468 mg/kg) vs vehicle), the “weight bearing on the back-right leg” value is on record as “significant increases”. The weight bearing result in series [3] (day 14, high dose (G3, 468 mg/kg) vs vehicle) was “significant increases”. The “osteophytes (histology)” value in series [3] (high dose group (468 mg/kg) compared with vehicle group) is recorded as “significantly decreased”. Also, in series [3] (high dose treated group (468 mg/kg) vs vehicle), the “other histological parameters (mean values)” value is “clear trend of lowering all other mean values”.
With `CCCC(=O)N[C@H]1C(OCc2ccccc2)O[C@H](CO)[C@@H](O)[C@@H]1O` (stereo partly drawn) [Compound 75, 1-O-benzyl-2-N-butyryl-D-glucosamine], in series [2], the AUC0-t entry is listed as “(—)”, the “AUC0-∞” value is given as “(—)”, the CLz/F result was “(—)” and the Cmax entry was “(—)”. In series [2], the Tmax result is reported as “(—)”, the Vz/F result was “(—)” and the t1/2z entry is “(—)”.
On to `CCCC(=O)N[C@H]1C(OCc2ccccc2)O[C@H](CO)[C@@H](O)[C@@H]1OCc1ccccc1` (stereo partly drawn) [Compound 76, 2-N-butyryl-1,3-di-O-benzyl-D-glucosamine], for which, in series [2], the AUC0-t result was “(—)”, the “AUC0-∞” value is “(—)”, the CLz/F result is reported as “(—)” and the Cmax entry is “(—)”. Further, in series [2], the Tmax entry is “(—)”, the Vz/F result is recorded as “(—)” and the t1/2z entry was “(—)”.
Take `CCCC(=O)N[C@H]1C(O)O[C@H](COC(=O)CCC(=O)O)[C@@H](OC(=O)CCC(=O)O)[C@@H]1O` (stereo partly drawn) [Compound 79, 2-N-butyryl-4,6-di-O-(4-hydroxy-4-oxo-butyryl)-D-glucosamine]: in series [2], the AUC0-t entry is listed as “(—)”, the “AUC0-∞” value is reported as “(—)”, the CLz/F result is “(—)” and the Cmax result was “(—)”. In addition, in series [2], the Tmax result was “(—)”, the Vz/F result is listed as “(—)” and the t1/2z entry was “(—)”.
As for `CCCC(=O)N[C@H]1C(O)O[C@H](COC(=O)NCCCC(=O)O)[C@@H](O)[C@@H]1O` (stereo partly drawn) [Compound 94, 2-N-butyryl-6-O-((3-carboxy-1-propyl)aminocarbonyl)-D-glucosamine], in series [2], the AUC0-t entry is given as “(—)”, the “AUC0-∞” value is “(—)”, the CLz/F result was “(—)” and the Cmax entry is “(—)”. Besides, in series [2], the Tmax result was “(—)”, the Vz/F result is listed as “(—)” and the t1/2z result is “(—)”.
As to `CCCC(=O)N[C@H]1C(O)O[C@H](CO)[C@@H](O)[C@@H]1O` (stereo partly shown) [GlcNBu, N-butyryl glucosamine], the “bone mineral and biomechanical properties” value with OVX rat is “preserves bone mineral and some biomechanical properties”. Moreover, in series [4], the subchondral bone structure entry was “preserved strikingly the subchondral bone structure”.
Turning to `CC(=O)N[C@H]1C(O)O[C@H](CO)[C@@H](O)[C@@H]1O` (stereo partly shown) [N-acetylglucosamine], the half-life entry in series [5] is “longer half-life than glucosamine”.
